How the values were obtained:
[1] = target: CSF-1R (Homo sapiens, UniProt P07333); experiment: CSF-1R in vitro kinase activity assay (HTRF kinEASE TK); assay type: biochemical; details: for inhibition at 0.01 µM: compound 10 nM, read-out: CSF-1R inhibition rate, 10 nM; for inhibition at 0.1 µM: compound 100 nM, read-out: CSF-1R inhibition rate, 100 nM
Source text: (§1) CSF-1R, PDGFR-α, KDR (VEGFR2) and KIT in vitro Kinase Activity Assay:
(§2) • ENVISION (Perkinelmer, 2104) • White 384-well MicroPlate (Cat #264706, Nunc) • HTRF kinEASE TK kit main reagents (Cat #62TKOPEC, Cisbio) • TK-biotin substrate • Streptavidin-XL665 • TK Antibody-Cryptate • 5× Enzymatic buffer (5×KB) • Staphylococcal enterotoxin B (SEB) • HTRF Detection buffer • CSF-1R (Cat #PV3249, Invitrogen) • PDGFR-α (Cat #PV3811, Invitrogen) • KDR (Cat #PV3660, Invitrogen) • KIT (Cat #08-156, Carna) • ATP 10 mM (Cat #PV3227, Invitrogen) • DTT 1 M (Cat #D5545, Sigma) • MgCl2 1 M (Cat #M8266, Sigma) • MnCl2 1 M (Cat #244589, Sigma)
(§3) Dilute Substrate-TK and ATP to 5× of the reaction concentration using 1× Kinase Buffer.
(§4) Prepare the 5× enzyme working solution using 1× Kinase Buffer.
(§5) Prepare the 4×Sa-XL665 working solution using Detection Buffer.
(§6) Dilute TK-Ab-Cryptate 100 times using Detection Buffer to prepare the working solution.
(§7) After all reagents were prepared according to the methods described above, except for the enzyme, they were equilibrated to room temperature before starting the sample addition. • a) First, 2.5% DMSO solutions were prepared separately using the pre-prepared 1× kinase buffer (DMSO concentrations that were too high could affect the reaction, so the final concentration of DMSO was controlled at 1%). Then, the corresponding 2.5% DMSO solution for the enzyme was used to dilute the test compounds. Compounds were screened with two concentrations of 100 nM and 10 nM. Except for the control wells, 4 μL of the diluted test compound solution was added to the reaction wells, and 4 μL of the pre-prepared 2.5% DMSO solution was added to the control wells. • b) 2 μL of the pre-prepared TK-biotin substrate solution at the corresponding concentration for the kinase was added to all reaction wells. • c) 2 μL of the pre-prepared enzyme solution at the corresponding concentration was added to all reaction wells except the negative control wells. For the negative control wells, 2 μL of 1× kinase buffer corresponding to the enzyme was added to make up the volume. The plate was sealed with sealing film, mixed gently, and incubated at room temperature for 10 min to allow the compounds to fully interact with the enzyme. • d) 2 μL of the ATP solution at the corresponding concentration for the enzyme was added to all reaction wells to initiate the kinase reaction. ATP concentrations and reaction times for enzyme screening are shown in Table 26 • e) Five minutes before the end of the kinase reaction, the detection solution was prepared. The detection buffer from the kit was used to prepare detection solutions for Streptavidin-XL665 and TK antibody europium cryptate (1:100) at the appropriate concentrations for the two enzymes. • f) After the kinase reaction was completed, 5 μL of the diluted Streptavidin-XL665 solution was added to all reaction wells. After mixing, the diluted TK antibody europium cryptate detection solution was immediately added. • g) The plate was sealed and mixed, incubated at room temperature for 1 hour, and the fluorescence signal was detected using the ENVISION (PerkinElmer) instrument (excitation at 320 nm, emission at 665 nm and 615 nm). The inhibition rate for each well was calculated based on the full-activity control wells and background signal wells, and the average value of the replicates was taken.

[2] = target: PDGFR-α (Homo sapiens, UniProt P16234); experiment: PDGFR-α in vitro kinase activity assay (HTRF kinEASE TK); assay type: biochemical; details: for inhibition at 0.01 µM: compound 10 nM, read-out: PDGFRα inhibition rate, 10 nM; for inhibition at 0.1 µM: compound 100 nM, read-out: PDGFRα inhibition rate, 100 nM
PDGFR-α, sequence (P16234 24-1089): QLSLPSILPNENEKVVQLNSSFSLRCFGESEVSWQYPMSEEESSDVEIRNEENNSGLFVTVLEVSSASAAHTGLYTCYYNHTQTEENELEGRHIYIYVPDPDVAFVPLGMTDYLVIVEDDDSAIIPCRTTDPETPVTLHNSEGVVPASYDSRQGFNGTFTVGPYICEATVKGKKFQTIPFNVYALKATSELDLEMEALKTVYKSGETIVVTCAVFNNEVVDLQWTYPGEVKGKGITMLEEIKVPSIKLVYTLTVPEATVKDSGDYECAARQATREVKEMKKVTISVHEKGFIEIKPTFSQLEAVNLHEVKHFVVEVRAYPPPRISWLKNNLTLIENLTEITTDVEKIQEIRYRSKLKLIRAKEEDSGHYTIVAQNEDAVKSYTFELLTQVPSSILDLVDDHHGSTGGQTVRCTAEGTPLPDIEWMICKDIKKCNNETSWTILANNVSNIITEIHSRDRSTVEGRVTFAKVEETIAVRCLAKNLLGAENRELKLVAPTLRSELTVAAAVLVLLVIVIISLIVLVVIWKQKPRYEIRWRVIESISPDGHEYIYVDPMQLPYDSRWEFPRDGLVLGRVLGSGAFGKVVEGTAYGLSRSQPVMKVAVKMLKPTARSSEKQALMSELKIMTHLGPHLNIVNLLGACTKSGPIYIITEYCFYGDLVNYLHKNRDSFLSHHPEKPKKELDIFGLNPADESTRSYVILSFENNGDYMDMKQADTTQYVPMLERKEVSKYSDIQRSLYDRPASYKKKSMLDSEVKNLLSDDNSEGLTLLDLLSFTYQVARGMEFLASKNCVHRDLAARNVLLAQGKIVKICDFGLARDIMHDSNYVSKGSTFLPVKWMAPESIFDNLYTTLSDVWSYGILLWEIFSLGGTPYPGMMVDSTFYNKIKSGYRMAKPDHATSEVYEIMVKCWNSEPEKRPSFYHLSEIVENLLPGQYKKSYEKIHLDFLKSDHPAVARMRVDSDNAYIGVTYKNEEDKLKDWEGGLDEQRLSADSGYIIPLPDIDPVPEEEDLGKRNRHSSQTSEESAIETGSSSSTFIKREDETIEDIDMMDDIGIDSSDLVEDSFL
Source text: as §1, §2, §3, §4, §5, §6, §7

[3] = target: KDR (VEGFR2) (Homo sapiens, UniProt P35968); experiment: KDR (VEGFR2) in vitro kinase activity assay (HTRF kinEASE TK); assay type: biochemical; details: for inhibition at 0.01 µM: compound 10 nM, read-out: VEGFR2 inhibition rate, 10 nM; for inhibition at 0.1 µM: compound 100 nM, read-out: VEGFR2 inhibition rate, 100 nM
KDR (VEGFR2), sequence (P35968 20-1356): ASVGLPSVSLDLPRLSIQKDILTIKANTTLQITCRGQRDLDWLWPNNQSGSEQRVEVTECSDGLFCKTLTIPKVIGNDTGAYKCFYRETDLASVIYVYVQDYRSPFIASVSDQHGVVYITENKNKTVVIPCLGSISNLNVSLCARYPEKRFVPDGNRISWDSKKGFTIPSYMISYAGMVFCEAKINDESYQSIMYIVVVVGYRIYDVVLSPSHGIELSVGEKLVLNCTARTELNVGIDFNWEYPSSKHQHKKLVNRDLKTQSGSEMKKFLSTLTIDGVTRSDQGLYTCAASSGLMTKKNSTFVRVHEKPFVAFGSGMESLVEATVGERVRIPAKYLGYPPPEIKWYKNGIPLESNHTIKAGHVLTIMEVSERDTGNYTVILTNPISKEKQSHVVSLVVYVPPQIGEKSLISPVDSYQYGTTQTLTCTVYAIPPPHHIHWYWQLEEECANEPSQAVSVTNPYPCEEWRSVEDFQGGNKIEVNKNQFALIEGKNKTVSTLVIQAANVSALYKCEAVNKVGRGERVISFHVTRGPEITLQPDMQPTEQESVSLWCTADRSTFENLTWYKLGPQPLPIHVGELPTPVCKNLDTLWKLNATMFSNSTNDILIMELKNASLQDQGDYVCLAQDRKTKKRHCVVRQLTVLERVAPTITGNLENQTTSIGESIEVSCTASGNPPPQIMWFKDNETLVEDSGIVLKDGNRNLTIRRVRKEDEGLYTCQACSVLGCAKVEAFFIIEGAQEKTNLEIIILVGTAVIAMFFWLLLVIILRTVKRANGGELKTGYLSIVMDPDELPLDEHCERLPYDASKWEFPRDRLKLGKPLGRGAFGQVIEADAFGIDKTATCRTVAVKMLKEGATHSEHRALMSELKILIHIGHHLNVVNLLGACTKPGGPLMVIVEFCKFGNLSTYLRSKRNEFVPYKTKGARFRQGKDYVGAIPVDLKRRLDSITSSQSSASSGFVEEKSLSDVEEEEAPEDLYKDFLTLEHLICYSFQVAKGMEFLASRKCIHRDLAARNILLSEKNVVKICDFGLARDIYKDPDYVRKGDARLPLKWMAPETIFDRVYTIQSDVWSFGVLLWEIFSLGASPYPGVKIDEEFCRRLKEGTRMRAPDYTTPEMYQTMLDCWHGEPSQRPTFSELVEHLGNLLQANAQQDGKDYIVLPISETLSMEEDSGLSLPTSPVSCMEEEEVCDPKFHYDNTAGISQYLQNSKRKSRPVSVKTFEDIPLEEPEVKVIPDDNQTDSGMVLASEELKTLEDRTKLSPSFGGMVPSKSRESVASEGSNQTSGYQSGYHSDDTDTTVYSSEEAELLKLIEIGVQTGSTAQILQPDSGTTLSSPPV
Source text: as §1, §2, §3, §4, §5, §6, §7

[4] = target: KIT (Homo sapiens, UniProt P10721); experiment: KIT in vitro kinase activity assay (HTRF kinEASE TK); assay type: biochemical; details: for inhibition at 0.01 µM: compound 10 nM, read-out: KIT inhibition rate, 10 nM; for inhibition at 0.1 µM: compound 100 nM, read-out: KIT inhibition rate, 100 nM
Source text: as §1, §2, §3, §4, §5, §6, §7

[5] = target: DDR1 (Homo sapiens, UniProt Q08345); experiment: DDR1 in vitro kinase activity assay (LanthaScreen Eu-anti-GST antibody / Kinase Tracer 178); assay type: binding; details: for inhibition at 0.01 µM: compound 10 nM, read-out: DDR1 inhibition rate, 10 nM; for inhibition at 0.1 µM: compound 100 nM, read-out: DDR1 inhibition rate, 100 nM
DDR1, sequence (Q08345 19-913): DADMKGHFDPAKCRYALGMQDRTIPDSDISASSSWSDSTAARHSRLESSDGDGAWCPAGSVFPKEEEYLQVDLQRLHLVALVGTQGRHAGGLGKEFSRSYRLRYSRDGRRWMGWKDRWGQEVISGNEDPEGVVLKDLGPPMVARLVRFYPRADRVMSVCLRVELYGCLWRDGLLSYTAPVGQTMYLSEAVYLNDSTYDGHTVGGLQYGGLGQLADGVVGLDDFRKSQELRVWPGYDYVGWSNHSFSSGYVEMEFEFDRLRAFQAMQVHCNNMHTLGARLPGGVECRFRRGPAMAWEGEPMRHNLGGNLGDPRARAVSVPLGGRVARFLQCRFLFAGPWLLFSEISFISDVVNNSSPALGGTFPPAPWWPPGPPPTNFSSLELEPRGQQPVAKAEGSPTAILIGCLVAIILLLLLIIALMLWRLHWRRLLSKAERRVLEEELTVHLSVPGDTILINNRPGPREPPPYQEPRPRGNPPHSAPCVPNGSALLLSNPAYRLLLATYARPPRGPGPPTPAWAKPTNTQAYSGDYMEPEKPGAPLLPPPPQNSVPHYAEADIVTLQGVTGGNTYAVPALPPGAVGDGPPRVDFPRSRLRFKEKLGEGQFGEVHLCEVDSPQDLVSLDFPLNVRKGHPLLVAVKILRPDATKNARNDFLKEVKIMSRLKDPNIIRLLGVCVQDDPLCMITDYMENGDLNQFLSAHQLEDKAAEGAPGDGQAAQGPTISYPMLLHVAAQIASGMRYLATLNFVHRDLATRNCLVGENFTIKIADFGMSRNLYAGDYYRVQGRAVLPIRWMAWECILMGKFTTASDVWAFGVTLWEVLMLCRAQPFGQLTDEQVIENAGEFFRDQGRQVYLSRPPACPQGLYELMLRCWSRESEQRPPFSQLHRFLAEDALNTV
Experimental: DDR1 in vitro Kinase Activity Assay:
• ENVISION (Perkinelmer, 2104) • White 384-well MicroPlate (Cat #264706, Nunc) • DDR1 (Cat #PV6047, Invitrogen) • 5× Kinase Buffer A (Cat #PV3189, Invitrogen) • Kinase Tracer 178 (Cat #PV5593, Invitrogen) • LanthaScreen® Eu-anti-GST Antibody (Cat #PV5594, Invitrogen)
The compounds to be tested were tested at two concentrations of 100 nM and 10 nM.
Kinase/Antibody Mixtures Preparation: Dilute Kinase/Antibody Mixtures with 1× Kinase Buffer to form 3× working solutions with final concentrations of 5 nM kinase and 2 nM Eu-Anti-GST Antibody, respectively.
Kinase Tracer 178 Preparation: Dilute Kinase Tracer 178 with 1× Kinase Buffer to make a 3× working solution with a final concentration of 10 nM.
After all reagents were prepared according to the methods described above, except for the enzyme, they were equilibrated to room temperature before starting the sample addition. • a) First, 3% DMSO solutions were prepared separately using the pre-prepared 1× kinase buffer (DMSO concentrations that were too high could affect the reaction, so the final concentration of DMSO was controlled at 1%). Then, the corresponding 3% DMSO solution for the enzyme was used to dilute the test compounds. Compounds were screened with two concentrations of 100 nM and 10 nM. Except for the control wells, 5 μL of the diluted test compound solution was added to the reaction wells, and 5 μL of the pre-prepared 3% DMSO solution was added to the control wells. • b) 5 μL of the pre-prepared Kinase/Antibody mixtures was added to all reaction wells except the negative control wells. For the negative control wells, 5 μL of 1× kinase buffer corresponding to the enzyme was added to make up the volume. • c) 5 μL of the pre-prepared Kinase Tracer 178 solution was added to all reaction wells. • d) The plate was sealed and mixed, incubated at room temperature for 1 hour, and the fluorescence signal was detected using the ENVISION (PerkinElmer) instrument (excitation at 340 nm, emission at 665 nm and 615 nm). The inhibition rate for each well was calculated based on the full-activity control wells and background signal wells, and the average value of the replicates was taken.

CSF-1R, sequence (P07333 20-972): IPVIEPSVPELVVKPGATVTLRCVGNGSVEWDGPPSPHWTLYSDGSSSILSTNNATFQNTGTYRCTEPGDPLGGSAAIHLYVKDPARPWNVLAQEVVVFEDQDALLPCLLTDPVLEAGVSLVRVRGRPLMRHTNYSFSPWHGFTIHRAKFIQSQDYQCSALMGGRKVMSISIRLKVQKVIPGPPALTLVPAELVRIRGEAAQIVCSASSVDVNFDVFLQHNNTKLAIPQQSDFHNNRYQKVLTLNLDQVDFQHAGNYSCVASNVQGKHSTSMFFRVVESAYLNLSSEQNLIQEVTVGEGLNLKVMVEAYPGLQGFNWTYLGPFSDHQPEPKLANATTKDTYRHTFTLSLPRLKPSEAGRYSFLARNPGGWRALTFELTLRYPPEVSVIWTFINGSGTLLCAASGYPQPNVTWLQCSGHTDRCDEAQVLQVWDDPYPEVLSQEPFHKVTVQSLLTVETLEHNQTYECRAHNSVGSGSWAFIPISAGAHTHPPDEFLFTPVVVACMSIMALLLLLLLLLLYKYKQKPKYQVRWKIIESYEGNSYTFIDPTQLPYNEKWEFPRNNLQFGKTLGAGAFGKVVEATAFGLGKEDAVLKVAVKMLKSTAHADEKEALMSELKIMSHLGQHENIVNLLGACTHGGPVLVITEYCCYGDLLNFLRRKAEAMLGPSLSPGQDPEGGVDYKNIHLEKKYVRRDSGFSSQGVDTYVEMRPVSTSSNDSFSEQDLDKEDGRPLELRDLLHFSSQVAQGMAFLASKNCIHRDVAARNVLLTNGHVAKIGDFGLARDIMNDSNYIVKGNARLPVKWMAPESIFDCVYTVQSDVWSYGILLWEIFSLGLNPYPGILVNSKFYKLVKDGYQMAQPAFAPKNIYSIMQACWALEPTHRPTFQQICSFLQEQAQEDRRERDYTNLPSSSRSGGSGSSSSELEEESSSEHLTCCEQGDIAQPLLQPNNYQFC

Row | SMILES | inhibition at 0.01 µM [1] | inhibition at 0.1 µM [1] | inhibition at 0.01 µM [2] | inhibition at 0.1 µM [2] | inhibition at 0.01 µM [3] | inhibition at 0.1 µM [3] | inhibition at 0.01 µM [4] | inhibition at 0.1 µM [4] | inhibition at 0.01 µM [5] | inhibition at 0.1 µM [5]
1 | Cc1cncc(NC(=O)c2cccc3c2CC[C@@H]3Nc2cncc(-c3cnn(C)c3)c2)c1 [Compound 14as] | 89.7% | 97% | 91% | 101% | 88.4% | 102% | 58.7% | 94.7% | 94.7% | 103%
2 | CN(c1cncc(-c2cnn(C)c2)c1)[C@H]1CCc2c(C(=O)Nc3cccc(C4CC4)c3)cccc21 [Compound 22a, (S)—N-(3-cyclopropylphenyl)-1-(methyl (5-(1-methyl-1H-pyrazol-4-yl)pyridin-3-yl)amino)-2,3-dihydro-1H-indene-4-carboxamide] | 34% | 96.7% | 62.9% | 60.5% | 52.5% | 96.4% | 5.8% | 27.2% | 32.4% | 86%
3 | Cn1cc2ncc(O[C@H]3CCc4c(C(=O)Nc5nn(C)c6cccc(F)c56)cccc43)cc2n1 [Compound 76aw] | 65.1% | 99.1% | 88.5% | 102% | 89.9% | 101% | 56% | 92.4% | 64% | 93.6%
4 | Cc1cncc(NC(=O)c2cccc3c2CC[C@@H]3Oc2cncc(-c3cnn(C)c3)c2)c1 [Compound 19j] | 80.1% | 101% | 23.5% | 79.7% | 91.7% | 102% | 14.5% | 62.8% | 86.1% | 96.7%
5 | Cn1cc(-c2cncc(O[C@H]3CCc4c(C(=O)Nc5cncc(Cl)c5)cccc43)c2)cn1 [Compound 19a, (S)—N-(5-chloropyridin-3-yl)-1-((5-(1-methyl-1H-pyrazol-4-yl)pyridin-3-yl)oxy)-2,3-dihydro-1H-indene-4-carboxamide] | 79.4% | 100% | 40.5% | 86.2% | 92.3% | 101% | 22.1% | 48.6% | 69.4% | 102%
6 | Cn1ncc2ncc(O[C@H]3CCc4c(C(=O)Nc5cncc(Cl)c5)cccc43)cc21 [Compound 76ac, (S)—N-(5-chloropyridin-3-yl)-1-((1-methyl-1H-pyrazolo[4,3-b]pyridin-6-yl)oxy)-2,3-dihydro-1H-indene-4-carboxamide] | 71.9% | 97.3% | 13.7% | 53.1% | 85.4% | 98.3% | 12.6% | 54% | 72.5% | 103%

The remaining lines, values ahead:

Row | inhibition at 0.01 µM [1] | inhibition at 0.1 µM [1] | inhibition at 0.01 µM [2] | inhibition at 0.1 µM [2] | inhibition at 0.01 µM [3] | inhibition at 0.1 µM [3] | inhibition at 0.01 µM [4] | inhibition at 0.1 µM [4] | inhibition at 0.01 µM [5] | inhibition at 0.1 µM [5] | SMILES
7 | 49% | 90.5% | 39.6% | 64% | 60% | 97.3% | 13.3% | 31.6% | 15.9% | 88% | Cc1cccc(C(=O)Nc2cccc3c2CC[C@@H]3Oc2cncc(-c3cnn(C)c3)c2)c1 [Compound 15, (S)-3-methyl-N-(1-((5-(1-methyl-1H-pyrazol-4-yl)pyridin-3-yl)oxy)-2,3-dihydro-1H-inden-4-yl)benzamide]
8 | 55.8% | 100% | 15.4% | 57.8% | 28.9% | 65.6% | 14.5% | 38.8% | 4.1% | 67.6% | Cn1cc(-c2cncc(N[C@H]3CCc4c(Nc5noc(C(C)(C)C)n5)cccc43)c2)cn1 [Compound 42o]
9 | 46.6% | 95.9% | 26.8% | 96.5% | 12.9% | 70.1% | 23.4% | 82% | 20% | 98.4% | Cn1ncc2ncc(N[C@H]3CCc4c(Nc5cc(C(C)(C)C)on5)cccc43)nc21 [Compound 86, (S)—N^4-(5-(tert-butyl)isoxazol-3-yl)-N1-(1-methyl-1H-pyrazolo[3,4-b]pyrazin-6-yl)-2,3-dihydro-1H-indene-1,4-diamine]
10 | 57.6% | 97.4% | 13.9% | 74.3% | 53% | 99.1% | 21.8% | 63.7% | 81.4% | 89.9% | Cc1cc(NC(=O)c2cccc3c2CC[C@@H]3Oc2cncc(-c3cnn(C)c3)c2)cc(C)n1 [Compound 19k, (S)—N-(2,6-dimethylpyridin-4-yl)-1-((5-(1-methyl-1H-pyrazol-4-yl)pyridin-3-yl)oxy)-2,3-dihydro-1H-indene-4-carboxamide]
11 | 41% | 101% | 67.6% | 99.4% | 26.8% | 58.1% | 11.3% | 83.3% | 37.9% | 85.6% | Cn1cc(-c2cncc(N[C@H]3CCc4c(C(=O)Nc5ccc(C(F)(F)F)nc5)cccc43)c2)cn1 [Compound 14ah]

Source: patent publication US20260125359A1, “HETEROARYL COMPOUNDS AS MULTI-TARGET PROTEIN KINASE INHIBITORS” (FUJIAN HAIXI PHARMACEUTICALS CO., LTD., priority 2023, published 2026)
